Test results taken from PubChem BioAssay (NCI).
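Protocol summary: plate cells (96-well), add compound at 5 concentrations, incubate 48 h, interpolate endpoints linearly. Definition used: TGI = concentration required for complete inhibition of growth.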

Experiments:
Assay in all cases: DTP human tumour cell line panel, 48 h
[1] = tested on: 786-0 renal
[2] = tested on: A498 renal
[3] = tested on: A549 NSCLC
[4] = tested on: ACHN renal
[5] = tested on: BT-549 breast
[6] = tested on: CAKI-1 renal
[7] = tested on: CCRF-CEM leukemia
[8] = tested on: COLO 205 colon
[9] = tested on: DU-145 prostate
[10] = tested on: EKVX NSCLC
[11] = tested on: HCC-2998 colon
[12] = tested on: HCT-116 colon
[13] = tested on: HCT-15 colon
[14] = tested on: HL-60(TB) leukemia
[15] = tested on: HOP-62 NSCLC
[16] = tested on: HOP-92 NSCLC
[17] = tested on: HS 578T breast
[18] = tested on: HT29 colon
[19] = tested on: IGROV1 ovarian
[20] = tested on: K-562 leukemia
[21] = tested on: KM12 colon
[22] = tested on: LOX IMVI melanoma
[23] = tested on: M14 melanoma
[24] = tested on: MALME-3M melanoma
[25] = tested on: MCF7 breast
[26] = tested on: MDA-MB-231 breast
[27] = tested on: MDA-MB-435
[28] = tested on: MDA-N
[29] = tested on: MOLT-4 leukemia
[30] = tested on: NCI-H226 lung
[31] = tested on: NCI-H23 lung
[32] = tested on: NCI-H460 lung
[33] = tested on: NCI-H522 lung
[34] = tested on: NCI/ADR-RES ovarian
[35] = tested on: OVCAR-3 ovarian
[36] = tested on: OVCAR-4 ovarian
[37] = tested on: OVCAR-5 ovarian
[38] = tested on: OVCAR-8 ovarian
[39] = tested on: PC-3 prostate
[40] = tested on: RPMI-8226 leukemia
[41] = tested on: RXF 393 renal
[42] = tested on: SF-268 CNS
[43] = tested on: SF-295 CNS
[44] = tested on: SF-539 CNS
[45] = tested on: SK-MEL-28 melanoma
[46] = tested on: SK-MEL-5 melanoma
[47] = tested on: SK-OV-3 ovarian
[48] = tested on: SN12C renal
[49] = tested on: SNB-19 CNS
[50] = tested on: SNB-75 CNS
[51] = tested on: SW-620 colon
[52] = tested on: T-47D breast
[53] = tested on: TK-10 renal
[54] = tested on: U251 CNS
[55] = tested on: UACC-257 melanoma
[56] = tested on: UACC-62 melanoma
[57] = tested on: UO-31 renal

Measured: TGI

Cc1ccc(C[N+](C)(C)N)cc1C
> 10 µM: [1] | [2] | [3] | [4] | [5] | [6] | [7] | [8] | [9] | [10] | [11] | [12] | [13] | [14] | [15] | [16] | [17] | [18] | [19] | [20] | [21] | [22] | [23] | [24] | [25] | [26] | [27] | [28] | [29] | [30] | [31] | [32] | [33] | [34] | [35] | [36] | [37] | [38] | [39] | [40] | [41] | [42] | [43] | [44] | [45] | [46] | [47] | [48] | [49] | [50] | [51] | [52] | [53] | [54] | [55] | [56] | [57]
